Assays:
Test in all cases: relative viability (nuclei count vs DMSO), 5 days (fraction); higher = more cells survive
TGX 221 + Alpelisib = compound: CC1=CN2C(=O)C=C(N=C2C(=C1)C(C)NC3=CC=CC=C3)N4CCOCC4 [TGX 221] + Cc1nc(NC(=O)N2CCC[C@H]2C(N)=O)sc1-c1ccnc(C(C)(C)C(F)(F)F)c1 [Alpelisib] (partner 2 µM)
Procedure, shortened: (§1)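 Relative viability is defined as nuclei in treated wells over nuclei in vehicle wells. Duplicate plates were run and medians reported. Lung cancer cell lines in 1536-well plates were dosed by pin tool one day after seeding, with one drug or with a fixed anchor-drug dose plus five library-drug doses (not always all listed) in √10 steps, and nuclei were counted after 5 days.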

[1] = compound: C1=CC=C(C(=C1)C2=CC=C(C=C2)C3=CSC4=C3C(=C(C(=O)N4)C#N)O)O + CS(=O)(=O)N1CCN(Cc2cc3nc(-c4cccc5[nH]ncc45)nc(N4CCOCC4)c3s2)CC1 [Pictilisib] (partner 1 µM)
Procedure, shortened: as §1

[2] = compound: O=C(CCCCCCNC(=O)c1cnc(N(c2ccccc2)c2ccccc2)nc1)NO [Ricolinostat] + N=C(N)NC(=N)NCCc1ccccc1 [Phenformin] (partner 250 µM)
Procedure, shortened: as §1

[3] = compound: C1=CC=C(C(=C1)C2=CC=C(C=C2)C3=CSC4=C3C(=C(C(=O)N4)C#N)O)O + CC(=O)Nc1cccc(-n2c(=O)n(C3CC3)c(=O)c3c(Nc4ccc(I)cc4F)n(C)c(=O)c(C)c32)c1 [Trametinib] (partner 0.02 µM)
Procedure, shortened: as §1

Cell Line | relative viability (TGX 221 + Alpelisib; first compound 0.08 µM) | relative viability (TGX 221 + Alpelisib; first compound 0.253 µM) | relative viability (TGX 221 + Alpelisib; first compound 0.8 µM) | relative viability (TGX 221 + Alpelisib; first compound 2.53 µM) | relative viability (TGX 221 + Alpelisib; first compound 8 µM) | relative viability ([1]; first compound 0.08 µM) | relative viability ([1]; first compound 0.253 µM) | relative viability ([1]; first compound 0.8 µM) | relative viability ([1]; first compound 2.53 µM) | relative viability ([1]; first compound 8 µM) | relative viability ([2]; first compound 0.08 µM) | relative viability ([2]; first compound 0.253 µM) | relative viability ([2]; first compound 2.53 µM) | relative viability ([3]; first compound 0.08 µM) | relative viability ([3]; first compound 0.253 µM) | relative viability ([3]; first compound 0.8 µM) | relative viability ([3]; first compound 2.53 µM) | relative viability ([3]; first compound 8 µM) | relative viability ([2]; first compound 0.8 µM)
EBC-1 | 0.738 | 0.526 | 0.426 | 0.321 | 0.32 | 0.353 | 0.429 | 0.346 | 0.343 | 0.368 |  |  |  |  |  |  |  |  | 
EKVX | 0.77 | 0.716 | 0.648 | 0.5 | 0.477 | 0.457 | 0.482 | 0.376 | 0.425 | 0.367 | 0.201 | 0.251 | 0.222 | 0.358 | 0.436 | 0.462 | 0.378 | 0.318 | 
EMC-BAC-2 | 0.735 | 0.597 | 0.679 | 0.623 | 0.629 | 0.526 | 0.516 | 0.562 | 0.544 | 0.477 | 0.475 | 0.481 | 0.396 | 0.942 |  | 0.889 | 0.892 | 0.913 | 0.476
EPLC-272H | 0.877 | 0.828 | 0.799 |  | 0.62 |  | 0.251 | 0.264 | 0.299 | 0.292 | 0.263 | 0.273 | 0.144 | 0.269 |  | 0.245 | 0.252 | 0.289 | 0.26
H3255 | 0.568 | 0.581 | 0.534 | 0.448 | 0.378 | 0.483 | 0.514 | 0.447 | 0.536 | 0.467 | 0.367 | 0.358 | 0.416 | 0.57 | 0.676 |  | 0.782 | 0.526 | 0.405
HARA | 0.778 | 0.659 | 0.803 | 0.574 | 0.584 |  | 0.668 | 0.449 | 0.392 | 0.442 | 0.411 | 0.452 | 0.124 | 0.689 | 0.705 | 0.959 | 0.659 | 0.554 | 0.427
HCC-15 | 0.893 | 0.788 | 0.958 | 0.831 | 0.776 | 0.777 | 0.767 | 0.734 | 0.74 | 0.777 | 0.411 | 0.509 | 0.496 | 0.39 | 0.369 | 0.409 | 0.427 | 0.358 | 0.486
HCC-44 | 0.784 | 0.667 | 0.632 | 0.597 | 0.473 | 0.549 | 0.717 | 0.601 | 0.556 | 0.605 | 0.186 | 0.265 | 0.166 | 1.13 | 1.15 | 1.13 | 0.937 | 0.927 | 0.169
HCC-78 | 0.299 | 0.23 |  | 0.2 | 0.175 | 0.169 | 0.286 | 0.205 | 0.192 | 0.196 |  | 0.761 | 0.428 | 0.916 | 1.27 | 0.972 | 0.728 | 0.628 | 0.596
HCC-366 | 0.307 | 0.234 | 0.245 | 0.0984 | 0.127 | 0.196 | 0.154 | 0.0996 | 0.174 | 0.164 | 0.509 | 0.606 | 0.432 |  | 0.385 | 0.363 | 0.439 | 0.314 | 0.619
